The term inhibition denotes the relative decrease from the control value, in per cent.

This note sets out measurements from patent US20100210649A1, “PYRIDAZINONES AND FURAN-CONTAINING COMPOUNDS” (Sloan-Kettering Institute for Cancer Research, priority 2006, published 2010).

Type in all cases: cell-based, human
One experiment has as its system H1975. Briefly: Non Small Cell Lung Cancer proliferation assay (Alamar Blue reduction), H1975. The settings on record: Homo sapiens, NCI-H1975, primary screening, 10 μM compound in 1% DMSO (v/v). In short, it runs like this: (§1)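 Proliferation after 48 h compound exposure (1% DMSO final, 37 °C) was read by Alamar Blue reduction over an additional 48 h, fluorescence at 530 nm excitation/590 nm emission. Dose-response runs seeded 250 cells/well; DMSO-only wells as high control.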
(In general: Alamar Blue is a resazurin reagent that responds to reducing activity.)

In the next experiment the test system is H1650. Put plainly: Non Small Cell Lung Cancer proliferation assay (Alamar Blue reduction), H1650. Particulars: Homo sapiens, NCI-H1650, primary screening, 10 μM compound in 1% DMSO (v/v). In short, it runs like this: as §1
In a further experiment the test system is H3255. Put plainly: Non Small Cell Lung Cancer proliferation assay (Alamar Blue reduction), H3255. Particulars: Homo sapiens, NCI-H3255, primary screening, 10 μM compound in 1% DMSO (v/v). In short, it runs like this: as §1
For the next experiment, the system named is H2030. Put plainly: Non Small Cell Lung Cancer proliferation assay (Alamar Blue reduction), H2030. Particulars: Homo sapiens, NCI-H2030, primary screening, 10 μM compound in 1% DMSO (v/v). In short, it runs like this:
as §1

[1] abbreviates: read-out: percentage inhibition H1975.
Where [2] appears, read: read-out: percentage inhibition H1650.
[3] abbreviates: read-out: percentage inhibition H3255.
The mark [4] stands for this setting: read-out: percentage inhibition H2030.
The mark [5] stands for this setting: H1975, read-out: PRIMARY HTS [%] H1975 (percentage inhibition).
Setting [6] is: H1650, read-out: PRIMARY HTS [%] H1650 (percentage inhibition).
The mark [7] stands for this setting: H3255, read-out: PRIMARY HTS [%] H3255 (percentage inhibition).
Setting [8] is: H2030, read-out: PRIMARY HTS [%] H2030 (percentage inhibition).

Read-outs that look alike come from different tables or passages of the source.

Turning to `COc1nn(-c2ccccc2)c(=O)c(Cl)c1Cl` [compound 104332], the inhibition at 10 µM in the experiment with H1975 (setting [1]) is 99%; in the experiment on H1650 (setting [2]), 51%; in the experiment on H3255 (setting [3]) it was 82%; with H2030 (setting [4]) it was 87%.

As for `CCOC(=O)N(CCOc1cnn(-c2ccccc2)c(=O)c1)C(=O)OCC` [compound 199761], the inhibition at 10 µM in the experiment on H1975 (setting [1]) was -25%; in the experiment with H1650 (setting [2]), -7%; in the experiment with H3255 (setting [3]) it was 41%; in the experiment on H2030 (setting [4]) it was 6%.

On to `O=C(Nc1ccc(Cl)cc1O)c1ccco1` [compound 75072], for which the inhibition at 10 µM is 0% in the experiment on H1975 (setting [5]), 13% with H1650 (setting [6]), 1% in the experiment with H3255 (setting [7]) and 5% in the experiment with H2030 (setting [8]).

For `Cc1ccc(C(=O)Nc2cc([N+](=O)[O-])ccc2C)o1` [compound 66776], the inhibition at 10 µM with H1975 (setting [5]) is 2%; with H1650 (setting [6]), 13%; in the experiment with H3255 (setting [7]), 2%; in the experiment with H2030 (setting [8]), -3%.

Regarding `O=c1c(N2CCCC2)c(Cl)cnn1-c1ccccc1` [compound 104304], the inhibition at 10 µM was found to be 98% with H1975 (setting [1]), 52% in the experiment with H1650 (setting [2]), 107% in the experiment on H3255 (setting [3]) and 14% in the experiment on H2030 (setting [4]).

Turning to `NCCOc1cnn(-c2ccccc2Cl)c(=O)c1Cl` [compound 200052], the inhibition at 10 µM in the experiment on H1975 (setting [1]) is 5%; in the experiment with H1650 (setting [2]), -9%; with H3255 (setting [3]), -18%; in the experiment on H2030 (setting [4]), 12%.

With `CN(C(=O)c1ccc([N+](=O)[O-])o1)c1ccccc1` [compound 104003], the inhibition at 10 µM with H1975 (setting [5]) is 18%; with H1650 (setting [6]) it was -3%; in the experiment on H3255 (setting [7]), 5%; with H2030 (setting [8]) it was 0%.

Turning to `Cc1cccc(NC(=O)c2cc3cc([N+](=O)[O-])ccc3o2)c1` [compound 84487], the inhibition at 10 µM in the experiment with H1975 (setting [5]) is -5%; with H1650 (setting [6]), 27%; in the experiment with H3255 (setting [7]), 3%; with H2030 (setting [8]), 5%.

Consider `CCOC(=O)NCCOc1cnn(-c2ccccc2)c(=O)c1Cl` [compound 201622], for which the inhibition at 10 µM was -23% in the experiment on H1975 (setting [1]), 5% with H1650 (setting [2]), 33% in the experiment with H3255 (setting [3]) and 4% with H2030 (setting [4]).

In the case of `O=c1c(SCc2ccccc2)c(Cl)cnn1-c1ccccc1` [compound 182827], the inhibition at 10 µM in the experiment with H1975 (setting [1]) was 14%; with H1650 (setting [2]) it was -20%; in the experiment on H3255 (setting [3]), -24%; with H2030 (setting [4]), -6%.

As for `Cc1ccc(C(=O)Nc2ccc(NC(=O)c3ccco3)c(C)c2)c(Cl)c1` [compound 61302], the inhibition at 10 µM in the experiment on H1975 (setting [5]) was 16%; in the experiment with H1650 (setting [6]) it was 13%; in the experiment with H3255 (setting [7]), 2%; in the experiment with H2030 (setting [8]), -2%.

For `O=C(Nc1ccc(Cl)cc1F)c1ccco1` [compound 66598], the inhibition at 10 µM in the experiment on H1975 (setting [5]) was 8%; in the experiment with H1650 (setting [6]), 8%; in the experiment on H3255 (setting [7]), 1%; in the experiment with H2030 (setting [8]), 0%.

Turning to `CCOC(=O)COc1cnn(-c2ccccc2)c(=O)c1Cl` [compound 225042], the inhibition at 10 µM is 10% in the experiment on H1975 (setting [1]), -18% in the experiment with H1650 (setting [2]), 5% in the experiment on H3255 (setting [3]) and 6% in the experiment with H2030 (setting [4]).

As for `COC(=O)NCCOc1cnn(-c2ccccc2)c(=O)c1` [compound 189493], the inhibition at 10 µM in the experiment on H1975 (setting [1]) was 12%; with H1650 (setting [2]), 2%; in the experiment on H3255 (setting [3]), -25%; in the experiment on H2030 (setting [4]), -8%.

Consider `O=C(Nc1ccc(N2CCN(C(=O)c3ccco3)CC2)cc1)c1ccco1` [compound 97253], for which the inhibition at 10 µM was -15% with H1975 (setting [5]), -2% in the experiment with H1650 (setting [6]), -3% with H3255 (setting [7]) and -5% in the experiment with H2030 (setting [8]).

Consider `CCN(Cc1ccccc1)C(=O)c1ccc([N+](=O)[O-])o1` [compound 78535], for which the inhibition at 10 µM is -2% in the experiment with H1975 (setting [5]), 41% in the experiment on H1650 (setting [6]), 8% with H3255 (setting [7]) and 26% with H2030 (setting [8]).

For the molecule `Cc1c(Oc2ccccc2)nnn1-c1cnn(-c2ccccc2)c(=O)c1Br` [compound 223337], the inhibition at 10 µM is 5% in the experiment on H1975 (setting [1]), 13% in the experiment on H1650 (setting [2]), 61% in the experiment on H3255 (setting [3]) and -14% in the experiment with H2030 (setting [4]).

On to `O=C(Nc1ccc(NC(=O)c2ccco2)cc1)c1ccc(-c2ccccc2)cc1` [compound 76739], for which the inhibition at 10 µM in the experiment on H1975 (setting [5]) is -9%; in the experiment with H1650 (setting [6]), 13%; with H3255 (setting [7]), 5%; with H2030 (setting [8]), 3%.

As to `CC(C)(C)NC(=O)c1ccc(NC(=O)c2ccco2)cc1` [compound 91753], the inhibition at 10 µM is -22% in the experiment on H1975 (setting [5]), -3% with H1650 (setting [6]), -1% with H3255 (setting [7]) and -5% in the experiment with H2030 (setting [8]).

In the case of `O=C(COc1cnn(-c2ccccc2)c(=O)c1Cl)c1ccc(Cl)cc1` [compound 177215], the inhibition at 10 µM is 25% in the experiment with H1975 (setting [1]), 6% with H1650 (setting [2]), 13% with H3255 (setting [3]) and -9% in the experiment on H2030 (setting [4]).

Regarding `CCOC(=O)NCCOc1cnn(-c2ccc(Cl)cc2)c(=O)c1Cl` [compound 199764], the inhibition at 10 µM with H1975 (setting [1]) is -14%; in the experiment on H1650 (setting [2]), -11%; with H3255 (setting [3]), 2%; in the experiment on H2030 (setting [4]), -9%.

With `O=C(Nc1cc(C(F)(F)F)ccc1Cl)c1ccc([N+](=O)[O-])o1` [compound 104039], the inhibition at 10 µM came to 69% with H1975 (setting [5]), 61% in the experiment with H1650 (setting [6]), 6% in the experiment on H3255 (setting [7]) and 13% in the experiment on H2030 (setting [8]).

On to `O=c1c(Cl)c(Cl)cnn1-c1ccc([N+](=O)[O-])cc1` [compound 103529], for which the inhibition at 10 µM in the experiment with H1975 (setting [1]) is 97%; in the experiment on H1650 (setting [2]), -13%; in the experiment with H3255 (setting [3]), 1%; in the experiment on H2030 (setting [4]), 15%.

With `Cc1ccc(C(=O)Nc2ccc(NC(=O)c3ccco3)cc2)c(C)c1` [compound 97216], the inhibition at 10 µM in the experiment on H1975 (setting [5]) is -4%; in the experiment with H1650 (setting [6]), -1%; in the experiment with H3255 (setting [7]) it was 3%; with H2030 (setting [8]) it was -4%.

As to `O=c1c(Cl)cc(Cl)nn1-c1ccccc1` [compound 196392], the inhibition at 10 µM was 99% in the experiment on H1975 (setting [1]), 87% with H1650 (setting [2]), 111% in the experiment on H3255 (setting [3]) and -13% in the experiment on H2030 (setting [4]).

In the case of `O=c1c(SCc2ccc(Cl)cc2Cl)c(SCc2ccc(Cl)cc2Cl)cnn1-c1ccccc1` [compound 208619], the inhibition at 10 µM in the experiment on H1975 (setting [1]) is 1%; in the experiment with H1650 (setting [2]), -4%; in the experiment on H3255 (setting [3]), -19%; with H2030 (setting [4]), -12%.

With `N=c1c(-c2nc3ccccc3[nH]2)cc(C(=O)c2ccco2)nn1-c1ccccc1` [compound 181801], the inhibition at 10 µM was 24% in the experiment on H1975 (setting [1]), 13% in the experiment on H1650 (setting [2]), 7% in the experiment on H3255 (setting [3]) and -7% in the experiment with H2030 (setting [4]).

Turning to `CCSc1cnn(-c2ccccc2)c(=O)c1SCC` [compound 174406], the inhibition at 10 µM in the experiment with H1975 (setting [1]) was 3%; in the experiment with H1650 (setting [2]), 18%; in the experiment on H3255 (setting [3]), 8%; with H2030 (setting [4]), -9%.

As to `CCc1ccccc1NC(=O)c1ccc([N+](=O)[O-])o1` [compound 103960], the inhibition at 10 µM in the experiment with H1975 (setting [5]) was 41%; in the experiment with H1650 (setting [6]), 62%; with H3255 (setting [7]), 68%; in the experiment with H2030 (setting [8]), 73%.

Regarding `COc1c(Cl)cnn(-c2ccc(Cl)c(C(F)(F)F)c2)c1=O` [compound 174405], the inhibition at 10 µM was 28% with H1975 (setting [1]), 13% with H1650 (setting [2]), 32% in the experiment on H3255 (setting [3]) and -9% in the experiment on H2030 (setting [4]).

Consider `O=C(Nc1cccc(Cl)c1)c1ccco1` [compound 78107], for which the inhibition at 10 µM in the experiment on H1975 (setting [5]) was -14%; in the experiment with H1650 (setting [6]), 14%; with H3255 (setting [7]) it was 6%; in the experiment with H2030 (setting [8]) it was 4%.

As for `CC(C)Oc1c(S)cnn(-c2ccccc2)c1=O` [compound 213495], the inhibition at 10 µM with H1975 (setting [1]) was -15%; in the experiment with H1650 (setting [2]), 4%; in the experiment with H3255 (setting [3]) it was 8%; with H2030 (setting [4]) it was -5%.

For the molecule `COc1cnn(-c2ccccc2)c(=O)c1SCc1ccc(Cl)c(Cl)c1` [compound 182729], the inhibition at 10 µM with H1975 (setting [1]) is 23%; in the experiment on H1650 (setting [2]) it was 10%; with H3255 (setting [3]) it was 1%; in the experiment with H2030 (setting [4]), -14%.

As to `O=c1c(Cl)c(Cl)c(O)nn1-c1ccccc1` [compound 103751], the inhibition at 10 µM was -4% in the experiment on H1975 (setting [1]), 6% in the experiment with H1650 (setting [2]), 0% with H3255 (setting [3]) and -4% in the experiment on H2030 (setting [4]).
